Consider 35 compounds from patent US20210017174A1, “IDENTIFICATION AND USE OF ERK5 INHIBITOR” (Bayer Aktiengesellschaft, priority 2018, published 2021).

In the first test the target is T1, ERK5 (Homo sapiens, UniProt Q13164).
T1 construct: host or cells: E. coli
T1 sequence (Q13164 1-398): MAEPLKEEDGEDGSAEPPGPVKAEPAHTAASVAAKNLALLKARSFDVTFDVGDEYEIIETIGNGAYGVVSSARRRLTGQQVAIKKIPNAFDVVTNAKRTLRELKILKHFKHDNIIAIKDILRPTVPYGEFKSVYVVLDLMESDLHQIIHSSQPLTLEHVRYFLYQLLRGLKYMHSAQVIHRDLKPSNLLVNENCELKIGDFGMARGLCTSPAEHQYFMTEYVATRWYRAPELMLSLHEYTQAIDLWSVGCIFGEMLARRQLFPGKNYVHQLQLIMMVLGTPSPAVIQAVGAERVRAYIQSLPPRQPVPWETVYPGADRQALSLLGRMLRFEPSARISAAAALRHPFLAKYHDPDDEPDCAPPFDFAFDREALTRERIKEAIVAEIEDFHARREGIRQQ
Put plainly: TR-FRET-based Erk5 activity inhibition assay (biochemical assay ERK5). Conditions: @ 20 μM; read-out: inhibition in biochemical ERK5 assay at a single concentration. Background: Time-resolved FRET reads energy transfer from a long-lived donor to a nearby acceptor.
As for `O=C(O)c1ccc2c(C3CCN(C(=O)c4ccc(OC(F)(F)F)cc4)CC3)ncnc2c1` [Example 32, 4-{1-[4-(Trifluoromethoxy)benzoyl]piperidin-4-yl}quinazoline-7-carboxylic Acid], the inhibition at 20 µM came to 44.2%.
On to `COc1cc2ncnc(C3CCN(C(=O)c4ccccc4OC(F)(F)F)CC3)c2cc1OC` [Example 28, [4-(6,7-Dimethoxyquinazolin-4-yl)piperidin-1-yl][2-(trifluoromethoxy)phenyl]-methanone], for which the inhibition at 20 µM was determined as 16%.

The test is the same for the next values; noted with them: TR-FRET, 250 μM ATP, 1 μM substrate peptide, 60 min at 22° C.; read-out: IC50 value biochemiocal ERK5 asssay.
With `O=C(c1ccc(OC(F)(F)F)cc1)N1CCC(c2ncnc3cc(N4CCCCC4=O)ccc23)CC1` [Example 55, 1-(4-{1-[4-(Trifluoromethoxy)benzoyl]piperidin-4-yl}quinazolin-7-yl)piperidin-2-one], the IC50 amounted to 1300 nM.
Still for that read-out and setting: in the case of `COc1cc2ncnc(C3CCN(C(=O)c4ccc(C(C)C)cc4)CC3)c2cc1OC` [Example 18, [4-(6,7-Dimethoxyquinazolin-4-yl)piperidin-1-yl][4-(propan-2-yl)phenyl]-methanone] it was 358 nM; in that of `O=C(c1ccc2c(C3CCN(C(=O)c4ccc(OC(F)(F)F)cc4)CC3)ncnc2c1)N1CCOCC1` [Example 44, Morpholin-4-yl(4-{1-[4-(trifluoromethoxy)benzoyl]piperidin-4-yl}quinazolin-7-yl)methanone], 2240 nM.
Same read-out and setting: as for `Nc1ccc2c(C3CCN(C(=O)c4ccc(OC(F)(F)F)cc4)CC3)ncnc2c1` [Example 37, [4-(7-Aminoquinazolin-4-yl)piperidin-1-yl][4-(trifluoromethoxy)phenyl]-methanone], the figure is 867 nM.
Regarding `CC(C)(O)COc1ccc2c(C3CCN(C(=O)c4ccc(OC(F)(F)F)cc4)CC3)ncnc2c1` [Example 63, {4-[7-(2-Hydroxy-2-methylpropoxy)quinazolin-4-yl]piperidin-1-yl}[4-(trifluoro-methoxy)phenyl]-methanone], the IC50 worked out at 274 nM.
Turning to `CN1CCC(Nc2cnc3c(C4CCN(C(=O)c5ccc(OC(F)(F)F)cc5)CC4)ncnc3c2)CC1` [Example 71, (4-{7-[(1-Methylpiperidin-4-yl)amino]pyrido[3,2-d]pyrimidin-4-yl}piperidin-1-yl)[4-(trifluoromethoxy)phenyl]methanone], the concentration for half-maximal inhibition (IC50) was found to be 153 nM.
For the compound `O=C(c1ccc(OC(F)(F)F)cc1)N1CCC(c2ncnc3cc(OCC(F)F)ccc23)CC1` [Example 64, {4-[7-(2,2-Difluoroethoxy)quinazolin-4-yl]piperidin-1-yl}[4-(trifluoromethoxy)-phenyl]methanone], the IC50 came to 89.8 nM.
Regarding `CCCc1ccc(C(=O)N2CCC(c3ncnc4cc(OC)c(OC)cc34)CC2)cc1` [Example 20, [4-(6,7-Dimethoxyquinazolin-4-yl)piperidin-1-yl](4-propylphenyl)methanone], the IC50 turned out to be 281 nM.
With `COCCOc1ccc(C(=O)N2CCC(c3ncnc4cc(OC)c(OC)cc34)CC2)cc1` [Example 24, [4-(6,7-Dimethoxyquinazolin-4-yl)piperidin-1-yl][4-(2-methoxyethoxy)phenyl]-methanone], the IC50 stood at 9660 nM.
In the case of `COc1cc2ncnc(C3CCN(C(=O)c4ccc(OC(F)(F)F)c(F)c4)CC3)c2cc1OC` [Example 22, [4-(6,7-Dimethoxyquinazolin-4-yl)piperidin-1-yl][3-fluoro-4-(trifluoromethoxy)phenyl]methanone], the 50% inhibitory concentration (IC50) came to 88.5 nM.
Consider `CN(C)CCOc1ccc2c(C3CCN(C(=O)c4ccc(OC(F)(F)F)cc4)CC3)ncnc2c1` [Example 56, Formic Acid—(4-{7-[2-(dimethylamino)ethoxy]quinazolin-4-yl}piperidin-1-yl)[4-(trifluoromethoxy)phenyl]methanone (1:1)], for which the IC50 came to 198 nM.
Take `CCCCOc1ccc(C(=O)N2CCC(c3ncnc4cc(OC)c(OC)cc34)CC2)cc1` [Example 17, (4-Butoxyphenyl)[4-(6,7-dimethoxyquinazolin-4-yl)piperidin-1-yl]methanone]: the IC50 is 111 nM.
With `CC1(N)CCN(c2cnc3c(C4CCN(C(=O)c5ccc(OC(F)(F)F)cc5)CC4)ncnc3c2)CC1` [Example 73, {4-[7-(4-Amino-4-methylpiperidin-1-yl)pyrido[3,2-d]pyrimidin-4-yl]piperidin-1-yl}[4-(trifluoromethoxy)phenyl]methanone], the IC50 came to 39.1 nM.
Regarding `O=C(c1ccc(OC(F)(F)F)cc1)N1CCC(c2ncnc3cc(Br)ccc23)CC1` [Example 40, [4-(7-Bromoquinazoline-4-yl)piperidin-1-yl][4-(trifluoromethoxy)phenyl]-methanone], the IC50 worked out at 224 nM.
Regarding `O=C(c1ccc2c(C3CCN(C(=O)c4ccc(OC(F)(F)F)cc4)CC3)ncnc2c1)N1CCCC1` [Example 43, Pyrrolidin-1-yl(4-{1-[4-(trifluoromethoxy)benzoyl]piperidin-4-yl}quinazolin-7-yl)methanone], the IC50 worked out at 1590 nM.
Consider `O=C(c1ccc(OC(F)(F)F)cc1)N1CCC(c2ncnc3cc(OCC4COC4)ccc23)CC1` [Example 48, {4-[7-(Oxetan-3-ylmethoxy)quinazolin-4-yl]piperidin-1-yl}[4-(trifluoromethoxy)-phenyl]methanone], for which the IC50 amounted to 270 nM.
With `CS(=O)(=O)Nc1ccc2c(C3CCN(C(=O)c4ccc(OC(F)(F)F)cc4)CC3)ncnc2c1` [Example 39, N-(4-{1-[4-(Trifluoromethoxy)benzoyl]piperidin-4-yl}quinazolin-7-yl)methane-sulfonamide], the IC50 came to 351 nM.
Regarding `COc1cc2ncnc(C3CCN(C(=O)c4ccc(Br)cc4)CC3)c2cc1OC` [Example 12, (4-Bromophenyl)[4-(6,7-dimethoxyquinazolin-4-yl)piperidin-1-yl]methanone], the IC50 stood at 190 nM.
As for `NC(=O)c1ccc2c(C3CCN(C(=O)c4ccc(OC(F)(F)F)cc4)CC3)ncnc2c1` [Example 33, 4-{1-[4-(Trifluoromethoxy)benzoyl]piperidin-4-yl}quinazoline-7-carboxamide], the half-inhibitory concentration (IC50) amounted to 253 nM.
Take `COc1ccc2c(C3CCN(C(=O)c4ccc(OC(F)(F)F)c(C)c4)CC3)ncnc2c1` [Example 62, [4-(7-Methoxyquinazolin-4-yl)piperidin-1-yl][3-methyl-4-(trifluoromethoxy)-phenyl]methanone]: the IC50 was found to be 274 nM.
For `COc1ccc2c(C3CCN(C(=O)c4ccc(OC(F)(F)F)cc4C)CC3)ncnc2c1` [Example 61, [4-(7-Methoxyquinazolin-4-yl)piperidin-1-yl][2-methyl-4-(trifluoromethoxy)-phenyl]methanone], the IC50 is 504 nM.
`CC(=O)Nc1ccc2c(C3CCN(C(=O)c4ccc(OC(F)(F)F)cc4)CC3)ncnc2c1` [Example 38, N-(4-{1-[4-(Trifluoromethoxy)benzoyl]piperidin-4-yl}quinazolin-7-yl)acetamide]: the IC50 was 1270 nM.
In the case of `CN(C)C(=O)c1ccc2c(C3CCN(C(=O)c4ccc(OC(F)(F)F)cc4)CC3)ncnc2c1` [Example 42, N,N-Dimethyl-4-{1-[4-(trifluoromethoxy)benzoyl]piperidin-4-yl}quinazoline-7-carboxamide], the IC50 was found to be 980 nM.
Same read-out and setting: in the case of `COc1cc2ncnc(C3CCN(C(=O)c4ccc(Cl)cc4)CC3)c2cc1OC` [Example 4, 4-[1-(4-Chlorobenzoyl)piperidin-4-yl]-6,7-dimethoxyquinazoline] it was 770 nM; in that of `O=C(Nc1ccccc1)c1ccc2c(C3CCN(C(=O)c4ccc(OC(F)(F)F)cc4)CC3)ncnc2c1` [Example 45, N-Phenyl-4-{1-[4-(trifluoromethoxy)benzoyl]piperidin-4-yl}quinazoline-7-carboxamide], 3260 nM; in that of `O=C(c1ccc(OC(F)(F)F)cc1)N1CCC(c2ncnc3cc(O)ccc23)CC1` [Example 36, [4-(7-Hydroxyquinazolin-4-yl)piperidin-1-yl][4-(trifluoromethoxy)phenyl]-methanone], 192 nM.
With `COc1cc2ncnc(C3CCN(C(=O)c4ccccc4)CC3)c2cc1OC` [Example 9, [4-(6,7-Dimethoxyquinazolin-4-yl)piperidin-1-yl](phenyl)methanone], the IC50 stood at 6170 nM.
For `COc1cc2ncnc(C3CCN(C(=O)c4ccc(OC(F)F)cc4)CC3)c2cc1OC` [Example 19, [4-(Difluoromethoxy)phenyl][4-(6,7-dimethoxyquinazolin-4-yl)piperidin-1-yl]methanone], the IC50 turned out to be 165 nM.
Take `COc1cc2ncnc(C3CCN(C(=O)c4ccc(COCC(F)(F)F)cc4)CC3)c2cc1OC` [Example 21, [4-(6,7-Dimethoxyquinazolin-4-yl)piperidin-1-yl]{4-[(2,2,2-trifluoroethoxy)methyl]phenyl}-methanone]: the IC50 is 2660 nM.
On the same count and under the same terms, as for `CC(C)COc1ccc2c(C3CCN(C(=O)c4ccc(OC(F)(F)F)cc4)CC3)ncnc2c1` [Example 46, {4-[7-(2-Methylpropoxy)quinazolin-4-yl]piperidin-1-yl}[4-(trifluoromethoxy)-phenyl]methanone], the figure is 293 nM; as for `N#Cc1ccc2c(C3CCN(C(=O)c4ccc(OC(F)(F)F)cc4)CC3)ncnc2c1` [Example 34, 4-{1-[4-(Trifluoromethoxy)benzoyl]piperidin-4-yl}quinazoline-7-carbonitrile], 506 nM.
On the same count and under the same terms, as for `O=C(c1ccc(OC(F)(F)F)cc1)N1CCC(c2ncnc3ccccc23)CC1` [Example 58, [4-(Quinazolin-4-yl)piperidin-1-yl][4-(trifluoromethoxy)phenyl]methanone], the figure is 1680 nM.

In another test the test system is SN12C-MEF2-luc (clone #37) reporter cell line. Put plainly: Luciferase reporter assay in SN12C-MEF2-luc cells (EGF-stimulated, MEF2-responsive luciferase).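 Also: serially diluted compounds at 37 °C, EGF with DMSO as maximum signal and EGF with a 10 µM reference inhibitor as minimum (full inhibition).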 Format: cell-based. Conditions: Homo sapiens, 16 h compound incubation, then EGF 100 ng/ml for 2 h, ONE-Glo luminescence. (In general: A reporter such as luciferase makes a cellular process visible.)
In the case of `CN1CCC(Nc2cnc3c(C4CCN(C(=O)c5ccc(OC(F)(F)F)cc5)CC4)ncnc3c2)CC1` [Example 71, (4-{7-[(1-Methylpiperidin-4-yl)amino]pyrido[3,2-d]pyrimidin-4-yl}piperidin-1-yl)[4-(trifluoromethoxy)phenyl]methanone], the IC50 was 436 nM.
`O=C(c1ccc(OC(F)(F)F)cc1)N1CCC(c2ncnc3cc(OCC(F)F)ccc23)CC1` [Example 64, {4-[7-(2,2-Difluoroethoxy)quinazolin-4-yl]piperidin-1-yl}[4-(trifluoromethoxy)-phenyl]methanone] yielded an IC50 of 694 nM.
`COc1cc2ncnc(C3CCN(C(=O)c4ccc(OC(F)(F)F)c(F)c4)CC3)c2cc1OC` [Example 22, [4-(6,7-Dimethoxyquinazolin-4-yl)piperidin-1-yl][3-fluoro-4-(trifluoromethoxy)phenyl]methanone] came in with an IC50 of 1230 nM.
Regarding `CCCCOc1ccc(C(=O)N2CCC(c3ncnc4cc(OC)c(OC)cc34)CC2)cc1` [Example 17, (4-Butoxyphenyl)[4-(6,7-dimethoxyquinazolin-4-yl)piperidin-1-yl]methanone], the half-inhibitory concentration (IC50) turned out to be 13100 nM.
`CC1(N)CCN(c2cnc3c(C4CCN(C(=O)c5ccc(OC(F)(F)F)cc5)CC4)ncnc3c2)CC1` [Example 73, {4-[7-(4-Amino-4-methylpiperidin-1-yl)pyrido[3,2-d]pyrimidin-4-yl]piperidin-1-yl}[4-(trifluoromethoxy)phenyl]methanone] gave an IC50 of 253 nM.
Still for that read-out and setting: in the case of `CN1CCN(c2cnc3c(C4CCN(C(=O)c5ccc(OC(F)(F)F)cc5N)CC4)ncnc3c2)CC1` [Example 81, [2-Amino-4-(trifluoromethoxy)phenyl]{4-[7-(4-methylpiperazin-1-yl)pyrido[3,2-d]pyrimidin-4-yl]piperidin-1-yl}methanone] it was 115 nM.

As usually defined, the IC50 is the midpoint of a concentration-inhibition curve.
